The values that follow are results of earlier work, collected in patent US20250000937A1 (ZHAOKE (HONG KONG) OPHTHALMOLOGY PHARMACEUTICAL LTD., priority 2021, published 2025).

For data set [1], the system named is DED. The following applies: in vivo.
For data set [2], the system named is DED. The note with it: OPUS-1, mean baseline ICSS of 1.84.
For data set [3] the following is noted: in vivo.

Structures are written as SMILES.

On to `CS(=O)(=O)c1cccc(C[C@H](NC(=O)c2c(Cl)cc3c(c2Cl)CCN(C(=O)c2ccc4ccoc4c2)C3)C(=O)O)c1` [Lifitegrast], for which the “Time to show efficacy against DED signs and symptoms” value in the data set on DED [1] is 3 months. The “Proportion of patients with at least a 1-point improvement in ICSS from baseline to day 84” value in the data set on DED [2] is listed as 22.2%. Also, the “Patients with instillation site pain” value in data set [3] is given as 22%.
